Results on 22 molecules are retold here after patent publication US20200261421A1, “HETEROCYCLIC COMPOUNDS AS HIV PROTEASE INHIBITORS” (Merck Sharp & Dohme Corp., priority 2016, published 2020).

The target of the assay is T1, wild-type HIV-1 protease (Human immunodeficiency virus type 1 group M subtype B, UniProt P04585).
T1 construct: Escherichia coli expressed wild-type HIV-1 protease protein; made in house; host or cells: Escherichia coli
Description: Assay for Inhibition of Microbial Expressed HIV Protease. In kind it is biochemical. Conditions: Escherichia coli expressed wild-type HIV-1 protease, peptide substrate cleavage; mean of at least two independent experiments. Here is the method: Inhibition of Escherichia coli expressed wild-type HIV-1 protease protein was carried out with a peptide substrate [Val-Ser-Gln-Asn-Wnaphtyl)Ala-Pro-Ile-Val]. The inhibitor compound was preincubated with HIV-1 protease enzyme in assay buffer (50 mM sodium acetate, pH 5.5, 100 mM NaCl, and 0.1% BSA) for 30 minutes at room temperature. Peptide substrate was added to 400 μM in a total volume of 20 μL containing 20 pM HIV-1 protease (final) after which the reaction was incubated for 1 hour at 30° C. The reaction was quenched by the addition of formic acid and HIV protease inhibitor indinavir to 0.012% and 150 nM final concentrations, respectively. Product formation was determined after separation of product and substrate on a ZORBAX Eclipse XDB-C18 column (Aligent Technologies, Santa Clara, Calif., USA) connected to an API 4000™ mass spectrometer (AB Sciex, Pte. Ltd., Concord Ontario, Canada) with multiple reaction monitoring (transitions were 644.5/428.9 and 615.4/422.2 (M1/M3) for product and indinavir respectively). The extent of inhibition of the reaction was determined from the peak area of the products. Analysis of the products, independently synthesized, provided quantitation standards and confirmation of the product composition. […] Ic50's refer to the 50% inhibition of the cleavage of a peptide substrate by hiv protease.
Data shown in the table reflects the mean of at least two independent experiments.

What is called IC50 is the point on the concentration scale where inhibition reaches its midpoint. Take `CC(C)CCC1(c2ccc(F)cc2)NC(=N)N(Cc2cccc(C(=O)N(C)Cc3ccc(Cl)cc3)c2)C1=O` (stereo not shown) [Example 22, N-(4-chlorobenzyl)-3-{[4-(4-fluorophenyl)-2-imino-4-(3-methylbutyl)-5-oxoimidazolidin-1-yl]methyl}-N-methylbenzamide]: the IC50 stood at 12.9 nM.
As to `CN(Cc1ccccc1S(C)(=O)=O)C(=O)c1cccc(CN2C(=N)NC(c3ccccc3)(c3ccccc3)C2=O)c1` [Example 23, 3-[(2-imino-5-oxo-4,4-diphenylimidazolidin-1-yl)methyl]-N-methyl-N-[2-(methylsulfonyl)-benzyl]benzamide], the IC50 is 12.9 nM.
The molecule `CC(C)CCC1(c2ccccc2)NC(=N)N(Cc2cccc(C(=O)N(C)[C@H](C)c3ccc(F)cc3)c2)C1=O` (stereo partly drawn) [Example 24, N-[(1R)-1-(4-fluorophenyl)ethyl]-3-{[2-imino-4-(3-methylbutyl)-5-oxo-4-phenylimidazolidin-1-yl]methyl}-N-methylbenzamide] registered an IC50 of 13.2 nM.
Turning to `CC(C)CC1(c2ccccc2)NC(=N)N(Cc2cccc(C(=O)N(C)Cc3ccc(Cl)cc3)c2)C1=O` (stereo not shown) [Example 25, N-(4-chlorobenzyl)-3-{[2-imino-4-(2-methylpropyl)-5-oxo-4-phenylimidazolidin-1-yl]methyl}-N-methylbenzamide], the IC50 is 13.8 nM.
With `CC(C)CCC1(c2ccccc2)NC(=N)N(Cc2cccc(C(=O)N(C)Cc3ccc(Cl)cc3)c2)C1=O` (stereo not shown) [Example 26, N-(4-chlorobenzyl)-3-{[2-imino-4-(3-methylbutyl)-5-oxo-4-phenylimidazolidin-1-yl]methyl}-N-methylbenzamide], inhibition was half-maximal at 13.9 nM (IC50). The IC50 values of the last two molecules are within 1.5-fold of each other.
As for `CCCC1(c2ccccc2)NC(=N)N(Cc2cccc(C(=O)N(C)Cc3ccc(Cl)cc3)c2)C1=O` (stereo not shown) [Example 27, N-(4-chlorobenzyl)-3-[(2-imino-5-oxo-4-phenyl-4-propylimidazolidin-1-yl)methyl]-N-methylbenzamide], half-maximal inhibition (IC50) was put at 16.9 nM.
The value for `CN(Cc1ccc(F)cc1)C(=O)c1cccc(CN2C(=N)NC(c3ccc(F)cc3)(c3ccc(F)cc3)C2=O)c1` [Example 28, 3-{[4,4-bis(4-fluorophenyl)-2-imino-5-oxoimidazolidin-1-yl]methyl}-N-(4-fluorobenzyl)-N-methylbenzamide] was 17.4 nM; that for `CC(C)CCC1(c2ccccc2)NC(=N)N(Cc2cccc(C(=O)N(C)Cc3ccccc3S(C)(=O)=O)c2)C1=O` (stereo not shown) [Example 29, 3-{[2-imino-4-(3-methylbutyl)-5-oxo-4-phenylimidazolidin-1-yl]methyl}-N-methyl-N-[2-(methylsulfonyl)-benzyl]benzamide] was 17.8 nM; that for `CN(Cc1ccc(Cl)cc1)C(=O)c1cccc(CN2C(=N)NC(c3ccc(F)cc3)(c3ccc(F)cc3)C2=O)c1` [Example 30, 3-{[4,4-bis(4-fluorophenyl)-2-imino-5-oxoimidazolidin-1-yl]methyl}-N-(4-chlorobenzyl)-N-methylbenzamide] was 17.9 nM.
Regarding `CC(C)CCC1(c2cccc(-c3cccnc3)c2)NC(=N)N(Cc2cccc(C(=O)N(C)Cc3ccc(C#N)cc3)c2)C1=O` (stereo not shown) [Example 31, N-(4-cyanobenzyl)-3-{[2-imino-4-(3-methylbutyl)-5-oxo-4-(3-pyridin-3-ylphenyl)imidazolidin-1-yl]methyl}-N-methylbenzamide], half-maximal inhibition (IC50) required 19 nM.
The molecule `CN(Cc1ccc(F)cc1)C(=O)c1cccc(CN2C(=N)NC(c3ccccc3)(c3ccccc3)C2=O)c1` [Example 32, N-(4-fluorobenzyl)-3-[(2-imino-5-oxo-4,4-diphenylimidazolidin-1-yl)methyl]-N-methylbenzamide] displayed an IC50 of 19.3 nM.
In turn, `CC(C)C[C@]1(c2ccccc2)NC(=N)N([C@H](C)c2cccc(C(=O)N(C)Cc3ccc(F)cc3)c2)C1=O` [Example 33, N-(4-fluorobenzyl)-3-((R)-1-((R)-2-imino-4-isobutyl-5-oxo-4-phenylimidazolidin-1-yl)ethyl)-N-methylbenzamide] returned an IC50 of 19.8 nM.
Turning to `CN(C)C(=O)c1cccc(C2(c3ccc(F)cc3)NC(=N)N(Cc3cccc(C(=O)N(C)Cc4ccc(Cl)cc4)c3)C2=O)c1` (stereo not shown) [Example 34, 3-[1-{3-[(4-chlorobenzyl)(methyl)-carbamoyl]benzyl}-4-(4-fluorophenyl)-2-imino-5-oxoimidazolidin-4-yl]-N,N-dimethylbenzamide], the IC50 worked out at 19.9 nM.
The molecule `CC(C)CCC1(c2ccc(F)cc2)NC(=N)N(Cc2cccc(C(=O)N(C)Cc3ccc(C#N)cc3)c2)C1=O` (stereo not shown) [Example 35, N-(4-cyanobenzyl)-3-{[4-(4-fluorophenyl)-2-imino-4-(3-methylbutyl)-5-oxoimidazolidin-1-yl]methyl}-N-methylbenzamide] registered a 50% inhibitory concentration (IC50) of 20.5 nM. This IC50 and that of the molecule before are within 1.5-fold of each other.
The value for `CN(Cc1ccc(Cl)cc1)C(=O)c1cccc(CN2C(=N)NC(c3ccccc3)(c3ccccc3)C2=O)c1` [Example 36, N-(4-chlorobenzyl)-3-[(2-imino-5-oxo-4,4-diphenylimidazolidin-1-yl)methyl]-N-methylbenzamide] was 21.7 nM; that for `CN(Cc1ccc(Cl)cc1)C(=O)c1cccc(CN2C(=N)NC(c3ccc(F)cc3)(c3cccc(C#N)c3)C2=O)c1` (stereo not shown) [Example 37, N-(4-chlorobenzyl)-3-{[4-(3-cyanophenyl)-4-(4-fluorophenyl)-2-imino-5-oxoimidazolidin-1-yl]methyl}-N-methylbenzamide] was 23.5 nM.
The figure for `CN(Cc1ccnc(Cl)c1)C(=O)c1cccc(CN2C(=N)NC(c3ccc(F)cc3)(c3ccc(F)cc3)C2=O)c1` [Example 38, 3-{[4,4-bis(4-fluorophenyl)-2-imino-5-oxoimidazolidin-1-yl]methyl}-N-[(2-chloropyridin-4-yl)methyl]-N-methylbenzamide] is 23.8 nM; for `CN(Cc1ccc(Cl)cc1)C(=O)c1cccc(CN2C(=N)NC(c3ccc(F)cc3)(c3ccccn3)C2=O)c1` (stereo not shown) [Example 39, N-(4-chlorobenzyl)-3-{[4-(4-fluorophenyl)-2-imino-5-oxo-4-pyridin-2-ylimidazolidin-1-yl]methyl}-N-methylbenzamide] it is 24.8 nM; for `CN(Cc1ccc(Cl)cc1)C(=O)c1cccc(CN2C(=N)NC(c3ccc(F)cc3)(c3cccc(Br)c3)C2=O)c1` (stereo not shown) [Example 40, 3-{[4-(3-bromophenyl)-4-(4-fluorophenyl)-2-imino-5-oxoimidazolidin-1-yl]methyl}-N-(4-chlorobenzyl)-N-methylbenzamide] it is 25.9 nM.
Molecule `C[C@H](c1ccc(Cl)cc1)N(C)C(=O)c1cccc(CN2C(=N)NC(c3ccc(F)cc3)(c3ccc(F)cc3)C2=O)c1` [Example 41, 3-{[4,4-bis(4-fluorophenyl)-2-imino-5-oxoimidazolidin-1-yl]methyl}-N-[(1R)-1-(4-chlorophenyl)ethyl]-N-methylbenzamide] yielded an IC50 of 26.5 nM.
The molecule `CCN(Cc1ccc(F)cc1)C(=O)c1cccc(CN2C(=N)NC(c3ccc(F)cc3)(c3ccc(F)cc3)C2=O)c1` [Example 42, 3-{[4,4-bis(4-fluorophenyl)-2-imino-5-oxoimidazolidin-1-yl]methyl}-N-ethyl-N-(4-fluorobenzyl)benzamide] yielded an IC50 of 28.6 nM.
The figure for `CCCC1(c2ccccc2)NC(=N)N(Cc2cccc(C(=O)N(C)Cc3ccc(F)cc3)c2)C1=O` (stereo not shown) [Example 43, N-(4-fluorobenzyl)-3-[(2-imino-5-oxo-4-phenyl-4-propylimidazolidin-1-yl)methyl]-N-methylbenzamide] is 28.7 nM.
